Patent US6682897B1, “Peptides derived from human heat protein 60 for treatment of diabetes, compositions, methods and kits” (Yeda Research and Development Co. Ltd., priority 1995, dated 2004)
“And” between values parts separate entries of the source, which are not always exact repeats. Equal values may be shown once. “Also recorded” adds a separate entry of the source. Marks after values point to notes of the source that are not given here.

What was measured:
[1] = test system: NOD/Lt female mice; assay: Treatment of NOD mice with peptides in IFA: diabetes and mortality (Example 2); type: in vivo; conditions: 100 μg peptide in IFA s.c., nine-week old NOD/Lt females; for Diabetes (%): persistent blood glucose over 11.1 mmol/l at 25 weeks of age
Procedure: (iv) Treatment and follow-up. Peptides, […], in PBS, were emulsified with an equal volume of IFA and injected subcutaneously into 10-week-old NOD females as described (Elias and Cohen, 1995). Control mice received an equal volume of PBS emulsified in IFA. The mice were monitored monthly for non-fasting blood glucose at 10am using the Blood Glucose Sensor (MediSense. Inc., Waltham, Mass.). […] Histological examination of the islets of the pancreas was done on sections stained with hematoxylin and eosin. The sections were scored independently by two observers who both were unaware of the identity of the groups. The chi square test was used to ascertain the statistical differences between the various treatments.
To test whether the p12 and p32 peptides can block the progression of diabetes as p277(Val^6-Val^11), the p277(Val6-Val^11), p12 or p32 peptides (100 μg in a 0.1 cc emulsion of IFA) were administered subcutaneously to groups of 10-12 nine-week old NOD/Lt female mice of the Jackson Laboratory, Bar-Harbor, Me. Diabetes, determined as persistent blood glucose levels over 11.1 mmol/l, was tested at 25 weeks of age. Control mice were untreated or were treated with p278.

[2] = test system: draining popliteal lymph node lymphocytes; assay: T-cell proliferation of draining lymph node cells of NOD mice immunized with hsp60 peptides in CFA (Example 1, FIG. 2); type: cell-based; conditions: NOD mice immunized with peptide emulsified in CFA in hind foot pads, assayed after 10 days
Procedure: (§1) (iii) T-Cell proliferation to peptides. Mice. Nine week old NOD mice or mice of other strains were immunized in the hind foot pads with 0.1 ml of an emulsion containing 25 μg peptide in complete Freund's adjuvant (CFA; Difco, Detroit, Mich.) mixed with an equal volume of phosphate-buffered saline (PBS). The draining popliteal lymph nodes were removed 10 days later and suspensions of lymphocytes in triplicate cultures were tested for proliferation in the presence of the various peptides (5 μg/ml) using the incorporation of [^3H]-thymidine as described (Elias et al., 1991).
The immunogenicity of the hsp60 peptides p12, p32, p277(Val^6-Val^11) and p278 in NOD mice was tested by immunizing the mice with the peptides emulsified in CFA in the hind foot pads, and assaying the proliferative responses of draining lymph node cells after 10 days as described above in section iii(a).

[3] = test system: female NOD mice; assay: Peptide treatment of 10-week old NOD mice, development of diabetes (Example 4, FIG. 4); type: in vivo; conditions: single s.c. injection in IFA at 10 weeks, observed through 8 months of age, vs IFA alone
Procedure: FIG. 4 is a graph showing the effect of peptide administration on diabetes. Groups of 10-20 NOD mice were treated at 10 weeks of age with 100 μg of mouse p12, p277, p35-GAD or MT-p278 in IFA, or IFA alone. The mice were bled monthly and followed for the onset of hyperglycemia.
(iv) Treatment and follow-up. Peptides, […], in PBS, were emulsified with an equal volume of IFA and injected subcutaneously into 10-week-old NOD females as described (Elias and Cohen, 1995). Control mice received an equal volume of PBS emulsified in IFA. The mice were monitored monthly for non-fasting blood glucose at 10am using the Blood Glucose Sensor (MediSense. Inc., Waltham, Mass.). Mice with a blood glucose greater than 11.1 mmol/L were considered to be diabetic; this concentration of glucose was greater than 3 standard deviations above the mean blood glucose concentration measured in non-diabetic mice (Elias and Cohen, 1995). Histological examination of the islets of the pancreas was done on sections stained with hematoxylin and eosin. The sections were scored independently by two observers who both were unaware of the identity of the groups. The chi square test was used to ascertain the statistical differences between the various treatments.
Following a protocol shown to be effective with mouse p277(Elias et al., 1991; Elias and Cohen, 1994; Elias and Cohen, 1995), groups of 10-week old female NOD mice were treatedby a single subcutaneous injection of each peptide ([…]) emulsified in IFA.

[4] = test system: serum antibodies of the IgG1, IgG2a and IgG2b isotypes; assay: Serum anti-peptide antibody isotypes by ELISA in peptide-treated NOD mice (FIG. 5); type: in vivo; conditions: for antibody titers of the IgG1 and IgG2b isotypes: peptide-treated NOD mice, sera diluted 1:50, ELISA
Procedure: FIGS. 5A-5D show the IgG1, IgG2a and IgG2b antibody isotypes in response to peptide treatment. Mice were treated as described in the legend to FIG. 4. Individual samples were analyzed for antibodies to mouse p12 A; p277 B; GAD-p35 C; and MT-p278 D, of the IgG1, IgG2a and IgG2b isotypes. Similar effects were obtained in two experiments. The results are presented as the absorbance at 405 nm (OD) of 10 individual mice in each group. The level of significance of the prevalence of IgG1 and IgG2b antibodies in groups A and B compared to C and D is P<0.001. The differences between the levels of IgG1 and IgG2b antibodies compared to the IgG2a antibodies in groups A and B were significant (P<0.001). There was no cross-reactivity between the antibodies (not shown).
(v) Serum Antibodies. Mice were bled monthly to detect antibody responses. The ELISA assay was done as described (Elias et al., 1991). Briefly, flat bottom Maxi-sorb plates (Nunc, Roskilde, Denmark) were coated, for the detection of anti-peptide antibodies, with […] of peptide in PBS, at a concentration of […] for 2 h at room temperature followed by over night incubation at 4° C. After incubation with peptide, the plates were washed and blocked for 2 h at 37° C. with 7% BSA (Sigma) in PBS. Sera were diluted 1:50 then added for 2 h at 37° C., followed by incubation for 2 h with […] of goat anti-mouse IgG (gamma chain Fc specific) conjugated to alkaline phosphatase (Jackson, Philadelphia, Pa.). After washing, the plates were incubated with the substrate, diethanolamine (Sigma) and read using an ELISA reader at 405 nm.
Successful treatment of STZ-induced diabetes with mouse peptide p277 was associated with the appearance of anti-peptide antibodies predominantly of the IgG1 and IgG2b isotypes (Elias and Cohen, 1996). The peptide-treated NOD mice for their serum antibodies was therefore examined. […] Thus, effectiveness in inhibiting diabetes was associated with the induction of an antibody response mainly of the IgG1 and IgG2b isotypes.

[5] = test system: draining lymph nodes; assay: T-cell proliferative responses of NOD mice to peptides (Example 4, FIG. 3); type: cell-based; conditions: NOD mice immunized with 25 μg peptide in IFA, lymph nodes 10 days later, 20 μg/ml
Procedure: FIG. 3 is a graph showing T-cell proliferative responses of NOD mice to peptides. Groups of three NOD mice were […] with peptides mouse p12, mouse p277, GAD-p35 and MT-p278 in IFA each at a dose of 25 μg in IFA. The draining lymph nodes were removed 10 days later and assayed for proliferative responses to the corresponding peptide at the concentrations of 5, 10, 20, and 50 μg/ml. The stimulation at the optimal concentration of 20 μg/ml is shown. The following ranges of cpm were obtained in medium controls: mouse p12, 881; mouse p277, 1243; MT-p278, 698 and GAD-p35 1430. Peptide mouse p38 is a peptide derived from mouse hsp60 (556-573), which has no sequence homology with the tested peptides and serves as a negative control of specificity. […] Each assay was done in triplicates for which the SD values are indicated by the bars. There was no cross-reactivity between the peptides (not shown).
as §1, with “1991). The results are shown as the stimulation index (SI): the ratio of the mean cpm in the presence of the test peptide to the mean cpm of control cultures without the peptide. Standard errors were always less than 10% of the means.” for “1991).”
Spontaneous T cell responses in pre-diabetic NOD mice were detected to the mouse p277 peptide (Elias et al., 1991; Birk et al., 1996) and to larger fragments of the mouse hsp60 molecule that contained the mouse p277 sequence (Birk et al., 1996). […] Other peptides immunogenic for NOD mice are the MT-p278 peptide (residues 458-474 in the Mycobacterial hsp60 molecule), and GAD-p35 (residues 524-543 in the GAD65 molecule).

[6] = test system: spleens of female NOD mice; assay: Spontaneous T-cell responses in spleens of female NOD mice (longitudinal study); type: cell-based; conditions: female NOD mice at ages 3-16 weeks
[7] = test system: Peripheral mononuclear cells (PBMC) of IDDM patients; assay: T-cell proliferative response of PBMC from newly diagnosed IDDM patients (Example 3); type: cell-based, human; conditions: for T-cell proliferative response (SI): antigen 10 μg/ml, 6 days, SI more than 2.0 positive
Procedure: To determine the T-cell responses to the various hsp60 peptides, lymphocytes from the peripheral blood of newly diagnosed (2 weeks-4 months) IDDM patients were tested in a proliferation assay. 10-20 ml of blood were removed into a sterile tube containing heparin as anti-coagulant and diluted in PBS 1:2. Peripheral mononuclear cells (PBMC) were isolated by centrifuging the blood over a lymphoprep layer. The PBMC were tested for proliferation in triplicates, in the presence of the various antigens (10 μg/ml) for 6 days using the incorporation of [^3H]-thymidine as a measure of proliferation. The antigens tested were human hsp60 or the hsp60 peptides p277(Val^6-Val^11), p12, p32 and control peptide p278. The T cell proliferative response is depicted as stimulation index (SI): The ratio between peptide-stimulated thymidine incorporation and background (no antigen added) thymidine incorporation by the T cells.

[8] = compared with p277; cited from earlier work

EIIKRTLKIPAMTIAKNAGV [p32]
Mortality (%) [1]: 25* %
therapeutic effect in treatment of diabetes [1]: effective in treatment of diabetes
Diabetes (%) [1]: 30% and 50* %
immunogenicity (proliferative responses of draining lymph node cells) [2]: strongly immunogenic

SRLSKVAPVIKARMMEYGTT [GAD-p35, peptide from the GAD65 molecule (524-543)]
development of diabetes [3]: no different than was treatment with IFA alone
mice that made specific IgG1 antibodies ([4]; 10 individual mice per group, ELISA): none
titers of IgG2b antibodies ([4]; compared with mouse p12 and mouse p277 groups): significantly lower titers
antibody titers of the IgG1 and IgG2b isotypes [4]: did not respond as strongly
immunogenicity (T-cell proliferative response) [5]: immunogenic, but less so

EEIAQVATISANGDKDIGNI [mouse p12]
development of diabetes [3]: significantly protected; also recorded: effective in inhibiting the development of diabetes
antibody titers of the IgG1 and IgG2b isotypes [4]: effective in inducing strong antibody titers
immunogenicity (T-cell proliferative response) [5]: strong response
spontaneous T-cell responses [6]: no spontaneous responses

EEIAQVATISANGDKEIGNI [p12]
Mortality (%) [1]: 10* %
therapeutic effect in treatment of diabetes [1]: effective in treatment of diabetes
Diabetes (%) [1]: 20%
immunogenicity (proliferative responses of draining lymph node cells) [2]: strongly immunogenic

hsp60: human 60 KDa heat shock protein (SEQ ID NO:1)
T-cell proliferative response (SI) ([7]; Patient 1): 5.6
T-cell proliferative response (SI) ([7]; Patient 2): 7.5
T-cell proliferative response (SI) ([7]; Patient 3): 8.0
T-cell proliferative response (SI) ([7]; Patient 4): 3.4
T-cell proliferative response (SI) ([7]; Patient 5): 1.2
T-cell proliferative response (SI) ([7]; Patient 6): 6.7
T-cell proliferative response (SI) ([7]; Patient 7): 10.3
T-cell proliferative response (SI) ([7]; Patient 8): 1.3
patients that responded ([7]; of 8 newly diagnosed IDDM patients, SI more than 2.0): 6/8

NEDQKIGIEIIKRTLKI [p278, human hsp60 residues 458-474; control peptide]
T-cell proliferative response (SI) ([7]; Patient 1): 0.5
T-cell proliferative response (SI) ([7]; Patient 2): 0.8
T-cell proliferative response (SI) ([7]; Patient 3): 0.7
T-cell proliferative response (SI) ([7]; Patient 4): 0.9
Mortality (%) [1]: 45%
therapeutic effect in treatment of diabetes [1]: no therapeutic effect
Diabetes (%) [1]: 90%
immunogenicity (proliferative responses of draining lymph node cells) [2]: non-immunogenic

p277(Val^11): p277 variant with cysteine at position 11 replaced by valine (VLGGGCALLRVIPALDSLTPANED; p277 peptide (437-460); UniProt P10809 437-460, looked up, variant C447V)
activity in the treatment of diabetes [8]: as active as p277

p277(Val^6): p277 variant with cysteine at position 6 replaced by valine (VLGGGVALLRCIPALDSLTPANED; p277 peptide (437-460); UniProt P10809 437-460, looked up, variant C442V)
activity in the treatment of diabetes [8]: as active as p277
